Where a name gives a salt, the structure may show the parent alone.
System: human DC
Assay: GSH determination in human DC in vitro
Type: cell-based
Description: Cellular GSH and GSSG were determined in micro-titer plate assays using colorimetric methods. The cellular GHS content is determined as a percentage of the GSH levels in freshly prepared controls or as pmol 10^−6 cells. GSSG was not detectable.
DC from human bone marrow (BMDC) (CD14^+) were isolated using MACS (Miltenyi Biotech) and incubated for seven days with IL-4 (500 U/ml, R & D Systems) and GM-CSF (Granulocyte-Monocyte Colony Stimulating Factor) (1000 U/ml (Immunonex)). GSX determination as under 1.3.

With `COC(=O)/C=C/C(=O)OC` [DMF, dimethyl fumarate] the “GSH in human DC” value was “depletes GSH”.
